# Experimental data reported in US20190365784A1, “USE OF BRASSINOSTEROID ANALOGS FOR THE TREATMENT OF DERMAL DISORDERS BY SELECTIVELY MODULATING LIVER X RECEPTORS (LXR) AND DERMAL DISEASE TREATMENT BY BRASSINOSTEROID ANALOGS ACTING AS SELECTIVE LIVER X RECEPTOR (LXR) MODULATORS” (CONSEJO NACIONAL DE INVESTIGACIONES CIENTÍFICAS Y TÉCNICAS …, priority 2015, published 2019).
# “And” between values parts separate entries of the source, which are not always exact repeats. Equal values may be shown once. Marks after values point to notes of the source that are not given here.
# Tests used:
# [1] = system: imiquimod-induced skin lesions; experiment: Imiquimod-induced psoriasis model in mice: clinical signs and dorsal skin histopathology; format: in vivo; design: key to Hyperkeratosis, protective effect / Epidermal serocellular crust, protective effect / Acanthosis, protective effect / Dermal inflammatory infiltrates, protective effect: the (+) sign represents the presence of a protective effect; a (−) sign represents the absence of protective effect
# Text: To test whether Compound I might ameliorate the signs of psoriasis, we topically administered Compound I to imiquimod-induced skin lesions in mice. The imiquimod mouse model of psoriasis-like skin inflammation is characterized by lesions that show augmented epidermal cell proliferation, abnormal keratinocyte differentiation, neutrophil accumulation in epidermal microabcesses, and neoangiogenesis.
# For this study, thirty two 8-week old female Balbc/J mice were housed […] in positively ventilated polysulfonate cages with HEPA filtered air at a density of 4 mice per cage. The animal room was lighted entirely with artificial fluorescent lighting, with a controlled 12 h light/dark cycle (6 am to 6 pm light). The normal temperature and relative humidity ranges in the animal rooms were 22±4° C. and 50±15%, respectively. The animal rooms were set to have a minimum of 15 air exchanges per hour. Filtered tap water, acidified to a pH of 2.5 to 3.0, and standard rodent chow were provided ad libitum. After 1 week of acclimation mice were randomized into 4 groups (n=8/each) as shown below (Table 1).
# 1. IMQ induction: On day 0 all grouped mice received a topical dose of 62.5 mg of IMQ cream (5%) on the shaved back for 6 consecutive days. (Day 0 to Day 5)
# 3. Mice were scored for clinical parameters of disease based on degree of erythema, scaling and thickening independently on a scale of 0-4. 0=none; 1=slight; 2=moderate; 3=moderate to severe: 4=severe. These observations were recorded on day 0, 2, 4, 6, and 8. On the same days, back skin thickness was measured with calipers.
# 5. Mice were sacrificed on day 10 by CO2 asphyxiation.
# 6. A part of the back skin was harvested and fixed for histology. Slides were processed, stained with H&E for histology assessment.
# Dorsal skin sections were evaluated histopathologically for evidence of key features of psoriasis, such as parakeratosis, hyperkeratosis (thickening of the stratum corneum), acanthosis (diffuse thickening of the stratum spinosum of the skin), epidermal serocellular crusts, epidermal microabscesses, basilar papillae, dermal inflammatory infiltrates and dilated tortuous capillaries (Table 2. Histopathological scoring system and definition used in the Imiquimod psoriasis model).
# [2] = Body and spleen weight in imiquimod psoriasis model mice; conditions: 9 days topical treatment
# Experimental: Mice were dosed with 0.1-0.2 ml of vehicle [90% (v/v) DMSO in pyrogen-free sterile water] or test compounds (0.1-0.2 ml of Compound I) or reference compound (˜0.05 mg clobetasol propionate, 0.5 mg/g cream) for 9 days (day 0-day 8) as indicated in Table 1. Compound I Doses 1 and 2 were 0.05% (w/v) and 0.1% (w/v) in 90% (v/v) DMSO in vehicle.
# Body weights were measured daily.
# Spleens were harvested, weighed and discarded.
# [3] = biological target: T1, LXR-alpha (Homo sapiens, UniProt Q13133); experiment: LXR-alpha/RXR LRE-luciferase reporter in transfected HEK293T cells; format: cell-based; conditions: 10 uM, 18 h
# T1 sequence (Q13133 1-447): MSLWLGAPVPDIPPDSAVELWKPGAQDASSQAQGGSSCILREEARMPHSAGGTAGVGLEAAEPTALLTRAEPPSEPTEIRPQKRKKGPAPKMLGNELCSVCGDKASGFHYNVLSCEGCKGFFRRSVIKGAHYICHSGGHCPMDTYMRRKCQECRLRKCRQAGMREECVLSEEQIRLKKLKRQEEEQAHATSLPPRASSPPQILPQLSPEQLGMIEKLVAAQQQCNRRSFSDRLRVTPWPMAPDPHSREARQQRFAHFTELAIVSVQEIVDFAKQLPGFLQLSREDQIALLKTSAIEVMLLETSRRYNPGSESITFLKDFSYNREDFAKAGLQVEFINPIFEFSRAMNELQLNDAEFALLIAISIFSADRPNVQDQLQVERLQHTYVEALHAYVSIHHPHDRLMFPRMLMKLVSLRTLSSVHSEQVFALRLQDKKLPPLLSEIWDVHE
# T1 sequence (P19793 1-462 partner): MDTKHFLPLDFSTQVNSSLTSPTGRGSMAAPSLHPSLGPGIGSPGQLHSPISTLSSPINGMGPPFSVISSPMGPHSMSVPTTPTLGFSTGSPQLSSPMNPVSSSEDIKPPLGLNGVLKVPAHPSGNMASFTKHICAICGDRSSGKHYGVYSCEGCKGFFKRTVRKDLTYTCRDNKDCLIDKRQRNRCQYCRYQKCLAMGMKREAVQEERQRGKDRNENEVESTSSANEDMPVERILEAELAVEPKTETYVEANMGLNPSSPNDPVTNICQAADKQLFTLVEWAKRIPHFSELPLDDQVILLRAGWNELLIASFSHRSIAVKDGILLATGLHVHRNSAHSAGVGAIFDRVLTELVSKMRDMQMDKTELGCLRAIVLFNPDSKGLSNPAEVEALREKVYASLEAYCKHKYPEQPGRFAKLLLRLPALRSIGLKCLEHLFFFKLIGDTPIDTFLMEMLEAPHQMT
# Text: Since we had previously shown that the beneficial effects of the compounds of the invention are independent of glucocorticoid receptor (GR) activation, we set forth to investigate if they might exert their actions through activation of liver X receptors (LXR). For this purpose we used cultured cells transiently transfected with LXR-alpha, the retinoid X receptor (RXR) and a LXR response element-luciferase reporter (LRE-LUC). A. Human embryonic kidney cells (HEK293T; 5×10^5 cells/well) were cultured in DMEM medium supplemented with 10% (v/v) fetal bovine serum, 100 ug/ml of streptomycin, 100 IU/ml of penicillin and 2 mM glutamine. For the transient transfections, the cell cultures were added with plasmids carrying LXR-alpha (pLXR-alpha; 0.6 ug), the retinoid X receptor (pRXR; 0.2 ug), a LXR response element-luciferase reporter (pRE-LUC; 0.7 ug) and beta-galactosidase gene (pRSV-LacZ; 0.6 ug) as a transfection control, using Lipofectamine 2000 (Invitrogen). […] Compounds III to VI are […] analogs bearing a fluorine atom at C-6. To assess LXR-alpha activation, at the end of the incubation period luciferase activity was measured by use of a luciferase assay system (Promega). The results of three independent assays, carried out in duplicate for each condition, are reported.
# [4] = Plasma total cholesterol, HDL-cholesterol and triglyceride in C57BI mice after 5 days i.p. treatment; format: in vivo; conditions: male C57BI mice; T0901317 5 mg/kg i.p. daily for 5 days
# Experimental: (§1) Administration of synthetic LXR agonists such as T0901317 induces a marked increment of liver lipogenesis that leads to hepatic steatosis and plasma hypertriglyceridemia.
# (§2) Male C57BI mice received daily for 5 days intraperitoneal injections containing either 10 mg Compound I/kg, or 5 mg T0901317/kg, or vehicle [90% (v/v) DMSO in apyrogenic sterile water]. On the sixth day of the assay, the animals were fasted for 4 h before decapitation. Blood plasma was obtained for the determination of total cholesterol, HDL-cholesterol and triglyceride contents. The livers were resected, and their weights and colors used as gross markers of increased liver triglyceride contents.
# [5] = Liver weight and gross morphology (hepatic steatosis) in C57BI mice after 5 days i.p. treatment; format: in vivo; conditions: male C57BI mice, T0901317 5 mg/kg i.p. daily for 5 days
# Experimental: as §1, §2
# [6] = psoriatic mice, topical 0.05%, QD 9 days
# [7] = topical 0.05%, summary of Table 3
smiles,measurement,setting,value
"CCC(=O)O[C@]1(C(=O)CCl)[C@@H](C)C[C@H]2[C@@H]3CCC4=CC(=O)C=C[C@]4(C)[C@@]3(F)[C@@H](O)C[C@@]21C [Clobetasol, clobetasol propionate, reference compound]",acanthosis reduced versus 0.1% (w/v) Compound I-treated animals,[1]; Clobetasol-treated mice,33%
same,dermal inflammatory infiltrates versus 0.1% (w/v) Compound I-treated animals,[1]; Clobetasol-treated mice,absent
same,back skin thickening (calipers),"[1]; after 9 days topical, Compound I 0.05% and 0.1% (w/v), clobetasol 0.05% cream",inhibited IMQ-induced skin thickening in the back
same,"global response score of dorsal skin, lower than in vehicle-treated psoriatic mice","[1]; clobetasol 0.05% topical, 9 days",~42%
same,"skin erythema (clinical score 0-4, in words)","[1]; day 8, topical QD 9 days, both Compound I doses 0.05% and 0.1% (w/v), clobetasol 0.05% cream",absent
same,"scaling (clinical score 0-4, in words)","[1]; day 8, topical QD 9 days, both Compound I doses, clobetasol 0.05% cream",absent in ⅝ mice and slight in the rest of the animals
same,"Acanthosis (0-4), group mean score of dorsal skin",[1]; [6],1.4††
same,"Basliar papillae (0-4), group mean score of dorsal skin",[1]; [6],0.0
same,"Dermal inflammatory infiltrates (0-4), group mean score of dorsal skin",[1]; [6],0.0††
same,"Dilated tortuous capillaries (0-4), group mean score of dorsal skin",[1]; [6],0.0
same,"Epidermal micro-abscesses (0-4), group mean score of dorsal skin",[1]; [6],0.0
same,"Epidermal serocellular rust (0-4), group mean score of dorsal skin",[1]; [6],0.6
same,"Hyperkeratosis (0-4), group mean score of dorsal skin",[1]; [6],1.8
same,"Mean Global Score, dorsal skin",[1]; [6],3.8
same,"Parakeratosis (0-4), group mean score of dorsal skin",[1]; [6],0.0
same,severity of microscopic alterations of back skin (histopathology),"[1]; topical 0.05%, QD 9 days",lowest severity
same,"Acanthosis, protective effect",[1]; [7],+
same,"Dermal inflammatory infiltrates, protective effect",[1]; [7],+
same,"Epidermal serocellular crust, protective effect",[1]; [7],−
same,"Hyperkeratosis, protective effect",[1]; [7],−
same,reduction of body weight compared with vehicle-treated psoriatic mice,[2],15%
same,reduction of spleen weight compared with vehicle-treated psoriatic mice,[2],62.6%
"CC[C@@H](C(C)C)[C@H](O)[C@@H](O)[C@@H](C)[C@H]1CC[C@H]2[C@@H]3C[C@@H](F)C4=CC(=O)CC[C@]4(C)[C@H]3CC[C@]12C [Compound IV, (22S,23S)-6β-fluoro-22,23-dihydroxystigmast-4-en-3-one]",induction of LXR-alpha driven gene expression compared with GW3965 (1 uM),[3],within the same range as that observed for GW3965
O=S(=O)(c1ccccc1)N(CC(F)(F)F)c1ccc(C(O)(C(F)(F)F)C(F)(F)F)cc1 [Compound T0901317],HDL-cholesterol plasmatic content higher than in Compound I- or Vehicle-treated mice,[4],50%
same,total cholesterol plasmatic content higher than in Compound I- or Vehicle-treated mice,[4],50%
same,triglyceride plasmatic content higher than in Compound I- or Vehicle-treated mice,[4],> 2 times
same,liver color versus DMSO-treated mice,[5],paler
same,liver steatosis (liver weight and color),[5],induces liver steatosis
same,liver weight higher than in DMSO-treated mice,[5]; 5 mg/kg,27% and ~23%
"CC[C@@H](C(C)C)[C@H](O)[C@@H](O)[C@@H](C)[C@H]1CC[C@H]2[C@@H]3C[C@@H](F)C4=CC(=O)C=C[C@]4(C)[C@H]3CC[C@]12C [Compound VI, (22S,23S)-6β-fluoro-22,23-dihydroxystigmasta-1,4-dien-3-one]",induction of LXR-alpha driven gene expression compared with GW3965 (1 uM),[3],within the same range as that observed for GW3965
